Data: paper PMC6112376, “Comprehensive Analyses and Prioritization of Tox21 10K Chemicals Affecting Mitochondrial Function by in-Depth Mechanistic Studies” (Environmental Health Perspectives, 2018)
Like-named read-outs stand apart in the source and are kept apart here.

Experiments:
HepG2 cells [1] = conditions: cited from earlier work
HepG2 cells [2] = assay: cells; conditions: Homo sapiens; for IC50: HepG2, read-out: MMP assays IC50 (µM) HepG2; for Emax: HepG2, read-out: MMP assays efficacy (%) HepG2
rat primary hepatocytes = assay: MMP assay in rat primary hepatocytes; conditions: for IC50: Rattus norvegicus, Hepatocyte, read-out: MMP assays IC50 (µM) Rat Hepatocytes; for MMP assays efficacy (%) Rat Hepatocytes / MMP assays IC50 (µM) Rat Hepatocytes: mean ± SD of three experiments
[3] = read-out: MMP assays IC50 (µM) qHTS-HepG2
[4] = read-out: MMP assays IC50 (µM), qHTS-HepG2

Row | SMILES | MMP assays efficacy (%) qHTS-HepG2 (HepG2 cells [1]) | IC50 (HepG2 cells [1]; [3]) | IC50 (HepG2 cells [2]) | Emax (HepG2 cells [2]) | IC50 (rat primary hepatocytes) | MMP assays efficacy (%) Rat Hepatocytes (rat primary hepatocytes) | IC50 (HepG2 cells [1]; [4]) | MMP assays IC50 (µM) Rat Hepatocytes (rat primary hepatocytes)
1 | CCC(=O)Oc1ccc(/C(CC)=C(\CC)c2ccc(OC(=O)CC)cc2)cc1 [Diethylstilbestrol dipropionate] | -112±3% | 10.5 ± 2.66 µM | 7.08 µM | 101% | 49.3 ± 19.5 µM | -38±22% |  | 
2 | CCOC1O[C@H]([C@@H](COCc2ccccc2)OCc2ccccc2)[C@H](OCc2ccccc2)[C@H]1O (stereo partly drawn) [Tribenoside] | -114±21% |  | 11.7 µM | 61% |  | inactive | 11.8 ± 0.8 µM | inactive
3 | O=C1c2cccc(O)c2C(=O)c2c(O)cc(CO)cc21 [Aloe-emodin] | -78±8% | 1.79 ± 1.54 µM | 7.08 µM | 90% | 8.43 ± 5.96 µM | -48±19% |  | 
4 | Oc1ccc(/N=N/c2ccccc2)cc1 [p-Phenylazophenol] | -96±7% |  | 10 µM | 107% |  | inactive | 4.06 ± 1.23 µM | inactive
5 | Cc1ccc(C(C)(C)C)c(O)c1 [Compound 2-tert-Butyl-5-methylphenol] | -96±7% | 23.5 ± 2.85 µM | 5.01 µM | 95% | 40.1 ± 6.5 µM | -66±11% |  | 
6 | Oc1ccc(Sc2ccc(O)cc2)cc1 [4,4'-Thiodiphenol] | -100±12% | 21.1 ± 2.7 µM | 25.1 µM | 115% | 24.7 ± 9.79 µM | -49±9% |  | 
7 | Cc1ccc2c(c1[N+](=O)[O-])C(=O)c1ccccc1C2=O [Compound 2-Methyl-1-nitroanthraquinone] | -63±13% | 1.34 ± 0.15 µM | 2.77 µM | 88% | 16.9 ± 14.7 µM | -84±16% |  | 
8 | C(=C(c1ccccc1)c1ccccc1)c1ccccc1 [Triphenylethylene] | -88±31% |  | 31.6 µM | 54% | 15.2 ± 11.5 µM | -74±30% | 35.7 ± 14.8 µM | 
9 | O=c1c(-c2ccccc2)c1-c1ccccc1 [Diphenylcyclopropenone] | -79±6% | 25.6 ± 1.67 µM | 27.5 µM | 79% |  | inactive |  | inactive
10 | COc1ccc(-c2coc3cc(O)ccc3c2=O)cc1 [Formononetin] | -85±16% |  | 17.8 µM | 80% | 13.2 ± 16.2 µM | -74±27% | 13.2 ± 4.88 µM | 
11 | CCc1oc2ccccc2c1C(=O)c1cc(I)c(O)c(I)c1 [Benziodarone] | -106±2% | 2.98 ± 0.63 µM | 4.35 µM | 97% | 1.76 ± 0.68 µM | -95±10% |  | 
12 | COc1cc(C(=O)NS(=O)(=O)c2ccccc2C)ccc1Cc1cn(C)c2ccc(NC(=O)OC3CCCC3)cc12 [Zafirlukast] | -108±3% |  | 13.8 µM | 105% | 3.43 ± 1.47 µM | -114±33% | 10.6 ± 1.22 µM | 
13 | Oc1ccc(-c2ccccc2)cc1Cl [Compound 2-Chloro-4-phenylphenol] | -138±26% | 15.4 ± 7.86 µM | 15.8 µM | 99% | 31.8 ± 3.65 µM | -109±36% |  | 
14 | Cc1cccc(Nc2ccccc2)c1 [Compound 3-Methyl-N-phenylaniline] | -93±25% | 48.6 ± 5.61 µM | 28.2 µM | 66% | 35.5 µM | -74±25% |  | 
15 | Cc1cc(O)c(Cl)c(C)c1Cl [2,4-Dichloro-3,5-dimethylphenol] | -104±10% | 5.88 ± 4.85 µM | 8.91 µM | 95% |  | inactive |  | inactive
16 | CC(=O)Nc1ccc(S(=O)(=O)Nc2ccc([N+](=O)[O-])cc2)cc1 [Sulfanitran] | -54±11% |  | 17.3 µM | 67% | 19.5 ± 2.25 µM | -63±14% | 26.6 ± 8.77 µM | 
